# Experiment: solvent given as SMILES
structure (smiles),measurement,setting,value
C#CCn1c2ccccc2c2cc(/C=C/C3=[N+]4C(=C(c5ccc(I)cc5)c5c(C)cc(/C=C/c6ccc7c(c6)c6ccccc6n7CC#C)n5[B-]4(F)F)C(C)=C3)ccc21,emission maximum,in CC#N,688 nm
same,emission maximum,in CS(C)=O,703 nm
same,emission maximum,in ClC(Cl)Cl,691 nm
Oc1ccccc1/C=N/c1ccc(Cn2cncn2)cc1,emission maximum,in C1CCOC1,363.99 nm
same,emission maximum,in C1COCCO1,324 nm
same,emission maximum,in CC#N,428.01 nm
same,emission maximum,in CC(C)=O,381 nm
same,emission maximum,in CC(C)O,367 nm
same,emission maximum,in CCCCCC,314 nm
same,emission maximum,in CCCCO,368 nm
same,emission maximum,in CCO,407 nm
same,emission maximum,in CCOC(C)=O,357 nm
same,emission maximum,in CCOCC,346 nm
same,emission maximum,in CN(C)C=O,397.99 nm
same,emission maximum,in CO,430 nm
same,emission maximum,in CS(C)=O,437.01 nm
same,emission maximum,in Cc1ccccc1,326 nm
same,emission maximum,in ClCCl,363 nm
CC1(C)C(/C=C/C2=C(Cl)C(=C/C=C3/N(Cc4ccc([N+](=O)[O-])cc4)c4ccccc4C3(C)C)/CCC2)=[N+](Cc2ccc([N+](=O)[O-])cc2)c2ccccc21,emission maximum,in CO,807 nm
NCCCCCCCCCCCCN1C(=O)c2ccc3c4ccc5c6c(ccc(c7ccc(c2c37)C1=O)c64)C(=O)NC5=O,emission maximum,in CN(C)C=O,534 nm
C=CCNc1ccc2ccc3oc4cc(=[N+](C)C)ccc-4nc3c2c1,emission maximum,in CC#N,637 nm
same,emission maximum,in CCO,631 nm
same,emission maximum,in ClCCl,620 nm
same,emission maximum,in O,650 nm
COc1ccc(C#Cc2c3ccccc3c(C#Cc3ccc(OC)cc3)c3cc4ccccc4cc23)cc1,emission maximum,in ClCCl,576 nm
C[SiH](C)c1cccc2ccccc12,emission maximum,in C1CCCCC1,328 nm
CC(C)(C)c1ccc2c(c1)c1cc(C(C)(C)C)ccc1n2-c1ccc(S(=O)(=O)c2ccc(-n3c4ccc(C(C)(C)C)cc4c4cc(C(C)(C)C)ccc43)cn2)nc1,emission maximum,in Cc1ccccc1,444.37 nm
same,emission maximum,in O=P(c1ccccc1)(c1ccccc1)c1ccc2sc3cccc(P(=O)(c4ccccc4)c4ccccc4)c3c2c1,444 nm
O=[N+]([O-])c1ccc(/C=C/c2cn(S(=O)(=O)c3ccccc3)c3ccccc23)cc1,emission maximum,in CC#N,593 nm
same,emission maximum,in CCCCCCC,403 nm
same,emission maximum,in CO,417 nm
same,emission maximum,in O,540 nm
CCn1c2ccccc2c2c(C#N)c3c(ccc4c3cnn4C)nc21,emission maximum,in CCOC(C)=O,476 nm
CCCCN(CCCC)c1ccc(C#Cc2cc(C#Cc3ccc(C#N)cc3)c(C#Cc3ccc(C#N)cc3)cc2C#Cc2ccc(N(CCCC)CCCC)cc2)cc1,emission maximum,in ClCCl,563 nm
same,emission maximum,in c1ccccc1,508 nm
c1ccc(/C(=C(\c2ccccc2)c2cc(-c3ccc(-c4ccccc4)cc3)ccc2-c2ccc(-c3ccccc3)cc2)c2cc(-c3ccc(-c4ccccc4)cc3)ccc2-c2ccc(-c3ccccc3)cc2)cc1,emission maximum,in C1CCOC1,496 nm
CN(C)c1ccc(C=C/C=C/C=C/c2ccc(C#N)cc2)cc1,emission maximum,in C1CCOC1,609 nm
same,emission maximum,in CC#N,658 nm
same,emission maximum,in CCCC#N,640 nm
same,emission maximum,in CCCCCC,467 nm
same,emission maximum,in CCCCOCCCC,541 nm
same,emission maximum,in CCO,637 nm
same,emission maximum,in CCOCC,567 nm
c1ccc2c(c1)-c1ccccc1C21c2ccccc2-c2cnccc21,emission maximum,in CC1CCCO1,318 nm
O=C1OC(=O)c2ccc(N(c3ccccc3)c3c4ccccc4cc4ccccc34)c3cccc1c23,emission maximum,in C1CCOC1,591 nm
same,emission maximum,in CCCCCC,514 nm
same,emission maximum,in ClCCl,608 nm
same,emission maximum,in c1ccccc1,560 nm
Nc1ccc(-c2ccc(N)cc2)cc1,emission maximum,in C1CCOC1,394 nm
same,emission maximum,in C1COCCO1,392 nm
same,emission maximum,in CC#N,393 nm
same,emission maximum,in CCCCCC,373 nm
same,emission maximum,in CCOC(C)=O,391 nm
same,emission maximum,in CN(C)C=O,403 nm
same,emission maximum,in CO,397 nm
same,emission maximum,in CS(C)=O,404 nm
same,emission maximum,in Cc1ccccc1,395 nm
same,emission maximum,in ClC(Cl)Cl,384 nm
same,emission maximum,in ClCCl,384 nm
same,emission maximum,in O,401 nm
O=C1CCCC2=C1C(c1ccc([N+](=O)[O-])cc1)c1c(c3ccccc3oc1=O)N2 (stereo unspecified),emission maximum,in CS(C)=O,441 nm
COc1ccc(-c2nc(-c3ccc(C#N)cc3)[nH]c2-c2ccc(OC)cc2)cc1,emission maximum,in CO,473 nm
CC(C)(C)Nc1oc(C=Cc2ccccc2)c(C(=O)OC(C)(C)C)c1C(=O)OC(C)(C)C,emission maximum,in CC#N,460 nm
CCCCC(CC)CN1C(=O)c2cccc3c(C#Cc4ccc(N(c5ccccc5)c5ccccc5)cc4)ccc(c23)C1=O (stereo unspecified),emission maximum,in C1CCCCC1,462 nm
same,emission maximum,in C1CCOC1,621 nm
same,emission maximum,in CC#N,547 nm
same,emission maximum,in Cc1ccccc1,512 nm
same,emission maximum,in ClC(Cl)Cl,582 nm
Cn1c(=O)cc(C(=O)c2ccccc2)c2sc(-c3ccc(C(F)(F)F)cc3)cc21,emission maximum,in CC#N,517 nm
same,emission maximum,in ClCCl,511 nm
[O-]c1c(-c2nc3ccccc3s2)cc2ccc3cccc4ccc1c2c34,emission maximum,in CC#N,553.72 nm
same,emission maximum,in CS(C)=O,555 nm
CCN1c2ccc(/C=N/Nc3ccccn3)cc2Sc2cc(-c3ccccc3)ccc21,emission maximum,in C1CCOC1,487 nm
same,emission maximum,in CS(C)=O,503 nm
same,emission maximum,in Cc1ccccc1,485 nm
same,emission maximum,in ClCCl,497 nm
c1ccc(-n2c(-c3cccc4ccccc34)nc3c4cccc5ccc6cccc(c6c54)c32)cc1,emission maximum,in C1CCOC1,422.46 nm
same,emission maximum,in CCCCCC,384 nm
same,emission maximum,in CS(C)=O,436 nm
same,emission maximum,in Cc1ccccc1,420 nm
same,emission maximum,in ClCCl,424.78 nm
Cc1c(COC(=O)Cc2c[nH]c3ccccc23)n2c(OCC(=O)Cc3c[nH]c4ccccc34)c(C)c(=O)n2c1=O,emission maximum,in CCO,452 nm
CN(C)c1ccc2c(c1)[Si](C)(C)C1=CC(=[N+](C)C)C=CC1=C2C#Cc1ccccc1,emission maximum,in CO,738 nm
same,emission maximum,in O,736 nm
CCn1c(-c2ccc(-c3ccc(-c4ccc(-c5n(CC)c6ccccc6[n+]5CC)cc4)c(C)c3)cc2)[n+](CC)c2ccccc21,emission maximum,in O,400 nm
CCC1=C(C)C2=Cc3cc(I)cn3[B-](F)(F)[N+]2=C1C,emission maximum,in C1CCCCC1,538.5 nm
same,emission maximum,in CC(C)=O,541 nm
same,emission maximum,in CCO,543 nm
same,emission maximum,in CCOC(C)=O,540.5 nm
same,emission maximum,in CO,542.5 nm
same,emission maximum,in OCC(F)(F)F,540 nm
Nc1ccc(/C=C/c2ccc3ccccc3c2)cc1,emission maximum,in CC#N,450 nm
same,emission maximum,in CCCCCC,392 nm
CC(C)(C)c1ccc(N(c2ccc(C(C)(C)C)cc2)c2ccc3c(N(c4ccc(C(C)(C)C)cc4)c4ccc(C(C)(C)C)cc4)cc4c5cc(N(c6ccc(C(C)(C)C)cc6)c6ccc(C(C)(C)C)cc6)ccc5c(N(c5ccc(C(C)(C)C)cc5)c5ccc(C(C)(C)C)cc5)cc4c3c2)cc1,emission maximum,in CC#N,470 nm
same,emission maximum,in CCCCCC,456 nm
same,emission maximum,in ClCCl,471 nm
CCN1\C(=C/C=C/C=C/C2=[N+](CC)c3ccc4ccccc4c3C2(C)C)C(C)(C)c2c1ccc1ccccc21,emission maximum,in C1CCOC1,707 nm
same,emission maximum,in CC#N,695 nm
same,emission maximum,in CC(C)=O,698 nm
same,emission maximum,in CCO,702 nm
same,emission maximum,in CN(C)C=O,702 nm
same,emission maximum,in CO,698 nm
same,emission maximum,in CS(C)=O,705 nm
same,emission maximum,in ClCCl,710 nm
COc1cccc(OC)c1C1=C2C(C)=CC(C)=[N+]2[B-](F)(F)n2c(C)cc(C)c21,emission maximum,in C1CCOC1,520 nm
same,emission maximum,in CC#N,513 nm
same,emission maximum,in CC(=O)C(C)(C)C,520 nm
same,emission maximum,in CC(C)=O,516 nm
same,emission maximum,in CCCCCC,519 nm
same,emission maximum,in CCOC(C)=O,520 nm
same,emission maximum,in CO,518 nm
Cc1ccc(C2=C3C=CC([Se]c4ccccc4)=[N+]3[B-](F)(F)n3c([Se]c4ccccc4)ccc32)cc1,emission maximum,in C1CCOC1,609 nm
CCCCOC(=O)c1cc(Oc2ccc(OC)cc2)c2c3c(Cl)cc4c5c(cc(Cl)c(c6c(Oc7ccc(OC)cc7)cc(C(=O)OCCCC)c1c26)c53)C(=O)N(c1c(C(C)C)cccc1C(C)C)C4=O,emission maximum,in Cc1ccccc1,599 nm
Nc1ccc2nc(-c3ccccc3)c(=O)oc2c1,emission maximum,in c1ccccc1,480 nm
CCCCCCCCCCCCN1C(=O)c2ccc3c4ccc5c6c(ccc(c7ccc(c2c37)C1=O)c64)C(=O)N(CCCCCCCCCCCC)C5=O,emission maximum,in CN(C)C=O,536 nm
CCCCC1(CCCC)c2cc(/C=C/c3ccc(N(c4ccccc4)c4ccccc4)cc3)ccc2-c2cc3c(cc21)-c1ccc(/C=C/c2ccc(N(c4ccccc4)c4ccccc4)cc2)cc1C3(CCCC)CCCC,emission maximum,in Cc1ccccc1,450 nm
COC(=O)c1ccc(/C=C2\C=C(c3ccc(C#N)cc3)N(CC(C)C)C2=O)cc1,emission maximum,in C1COCCO1,589 nm
CC(C)(C)c1cc2cc(N(c3ccccc3)c3ccccc3)c3cc(C(C)(C)C)cc4cc(N(c5ccccc5)c5ccccc5)c(c1)c2c43,emission maximum,in C1CCOC1,466.72 nm
same,emission maximum,in CC#N,497.22 nm
same,emission maximum,in CCCCCC,426 nm
N#CC(C#N)=C(/C=C/c1cc2c3c(c1)CCCN3CCC2)c1ccc2c3c(cccc13)CC2,emission maximum,in C1CCOC1,602 nm
same,emission maximum,in CC#N,622 nm
same,emission maximum,in CC(C)=O,619 nm
same,emission maximum,in CCOC(C)=O,600 nm
same,emission maximum,in CN(C)C=O,629 nm
same,emission maximum,in CO,613 nm
same,emission maximum,in Cc1ccccc1,580 nm
same,emission maximum,in ClC(Cl)Cl,599 nm
CC(C)Nc1cc2c(cc1F)c(=O)c1cc(F)c(NC(C)C)cc1n2C,emission maximum,in CCO,421 nm
c1ccc2c(c1)[nH]c1cccnc12,emission maximum,in C1CCCCC1,341 nm
same,emission maximum,in C1CCOC1,352 nm
same,emission maximum,in C1COCCO1,367 nm
same,emission maximum,in CCO,385 nm
same,emission maximum,in CN(C)C=O,371 nm
same,emission maximum,in Cc1ccccc1,350 nm
same,emission maximum,in ClC(Cl)Cl,369 nm
same,emission maximum,in Clc1ccccc1,364 nm
CCCCCCCCCCCCOc1cc2cc(N(C)C)ccc2cc1C=C(C#N)C#N,emission maximum,in C1CCOC1,576 nm
same,emission maximum,in CC#N,613 nm
same,emission maximum,in CCCCCC,653 nm
same,emission maximum,in CCO,610 nm
same,emission maximum,in CCOC(C)=O,571 nm
same,emission maximum,in CS(C)=O,631 nm
same,emission maximum,in ClCCl,578 nm
same,emission maximum,in O,674 nm
F[B-]1(F)n2c(cc3ccc4ccccc4c32)C(c2ccc(I)cc2)=C2C=C3CCc4ccccc4C3=[N+]21,emission maximum,in ClC(Cl)Cl,668 nm
COc1cc2c(cc1-c1ccc(C=O)cc1)Cc1c3c(c4c(c1-2)-c1cc(OC)c(-c2ccc(C=O)cc2)cc1C4)C(=O)N(CCC(C)C)C3=O,emission maximum,in C1CCOC1,462 nm
CNc1cccc2c1C(=O)c1ccccc1-2,emission maximum,in C1CCCCC1,497 nm
same,emission maximum,in CC#N,533 nm
same,emission maximum,in CCO,542 nm
same,emission maximum,in c1ccccc1,519 nm
